# Measured values from patent US20100143250A1, “COMPOUNDS FOR THE DIAGNOSIS OF APOPTOSIS” (priority 2007, published 2010).
# Ends that are not written are not given here.
# Key:
# [1] = system: mouse apoptotic liver; experiment: MRI of apoptotic liver in the mouse (anti-Fas antibody induced); assay type: in vivo, Balb/c mice
# Method: The targeting effectiveness of the Gd-DTPA-LIKKPF product by MRI was also evaluated on a model of apoptotic liver in the mouse. The apoptosis is induced by means of an i.v. injection (caudal vein) of anti-Fas monoclonal antibody in anesthetized Balb/c mice (Blankenberg et al., 1998, 1999; Rodriguez et al., 1996).
# Before the MRI acquisition, the mice are anesthetized with pentobarbital. The experiments are carried out using a 200 MHz Bruker spectrometer (4.7 T) equipped with a vertical magnet and with a mini-imaging system. […] The signal intensity (SI) is measured in the liver. The SI value is also measured in a tube filled with a 2% aqueous solution of gelatin enriched with 50 μM Gd-DTPA, used as a reference product, in a region outside the image of the mouse which corresponds to the background noise. […]
# For the two models, the SI values are measured in various regions of interest (at the level of the arterial wall of the abdominal aorta or whole liver) using the OSIRIS image analysis software. […] The SI value is measured on all the image slices where the arterial wall and the liver are visible. […] The % ΔSNR is calculated according to the following equation:
# % ΔSNR=[(SIpost/SDnoise)−(SIpre/SDnoise)]/[SIpre/SDnoise]×100 where SDnoise is the standard deviation of the noise measured on a region outside the animal.
# [2] = Relaxivity measurements (r1, r2) in aqueous solution; assay type: physicochemical
# Method: The relaxation times T1 and T2 were determined by standard procedures on a Minispec 120 instrument (Bruker) at 20 MHz (0.47T) and 37° C. The longitudinal relaxation time T1 is measured using an inversion-recovery sequence and the transverse relaxation time T2 is measured using a CPMG technique.
# The relaxation rates R1 (=1/T1) and R2 (=1/T2) were calculated for various concentrations of total metal (ranging from 0.1×10^−3 to 1×10^−3 mol/l) in an aqueous solution at 37° C. The correlation between R1 or R2 as a function of the concentration is linear, and the slope represents the relaxivity r1 (R1/C) or r2 (R2/C) expressed as (1/second)×(1/mmol/l), i.e. (s^−1.mM^−1).
# [3] = system: dopaminergic neurons treated with MPP+; experiment: MRI detection in cell culture, healthy cells vs cells treated with MPP+; assay type: cell-based, rat
# Method: (§1) MRI studies were carried out on C57BI/6 mice treated with MPTP (or its metabolite MPP+ for cell cultures), a neurotoxin which induces a “parkinsonien” syndrome.
# In cell culture, the death of dopaminergic neurons by apoptosis was verified using rat brains, by immunohistochemistry and detection of caspase 3 enzyme activity. For the MRI detection in cell culture, the healthy cells and cells treated with MPP+ were brought into contact with USPIO-LIKKPF.
# [4] = system: apoptotic Jurkat cells; experiment: In vitro MRI on apoptotic or control Jurkat cells preincubated with USPIO; assay type: cell-based
# Method: The in vitro MRI is carried out on apoptotic (or control) cells preincubated with the USPIO-LIKKPF or unfunctionalized USPIO (3 or 4 mM with respect to iron) for 2 hours at 37° C. Jurkat cell apoptosis is induced by a treatment with 2 μM camptothecin for 24 hours. After incubation with the USPIO, the labeled cells are transferred into a 0.2% gelatin solution for analysis by MRI (Bruker Avance-200, 4.7 T, TR/TE=3000/20 ms, 30 echos, matrix=256×256, FOV=4 cm, slice thickness=1 mm) in ELISA plate wells.
# [5] = Interaction of USPIO-LIKKPF with immobilized PS, iron assayed with Prussian blue; assay type: binding; details: 2 hours at 37° C., read-out: K*d value
# Method: The affinity of the USPIO-LIKKPF is measured on immobilized PS (120 μg/ml). After saturation of the nonspecific sites, the USPIO-LIKKPF is incubated at increasing concentrations (122 nM-4 mM with respect to iron) for 2 hours at 37° C. After washing of the wells, the molecules bound to the PS are digested in one volume of 5N HCl. The samples are digested in one volume of 5N HCl, for 48 h at 37° C., and the iron is assayed using Prussian blue (OD630).
# [6] = system: apoptotic nervous tissues; experiment: MRI of mice treated with MPTP (model of Parkinson's disease); assay type: in vivo; details: 4th, 5th, 6th day of treatment, one and three weeks after
# Method: In a model of Parkinson's disease, with the injection of USPIO-LIKKPF product (product of example 1)
# as §1
# The diseased and healthy mice were studied on the 4th, 5th and 6th day of treatment, and one and three weeks after the end of the treatment with MPTP. […] The MRI localization of the diseased regions corresponds to the regions containing dopaminergic neurons (immunohistochemistry: detection of dopaminergic neurons by measuring tyrosine hydroxylase in the central gray nuclei).
# [7] = Annexin V competition assay for the interaction of USPIO-LIKKPF with PS; assay type: binding; details: FIG. 3
# [8] = Annexin V competition assay for peptide LIKKPF on immobilized PS (ELISA plate); assay type: binding; details: interaction of peptide LIKKPF with PS, FIG. 1
# Method: The affinity of the peptide LIKKPF (SEQ ID No 11) is measured on immobilized PS (ELISA plate). […] Incubation at 37° C. is sustained for 1.5 hours. The bound annexin V is detected by adding a solution of streptavidin-HRP, and then a solution of ABTS substrate containing 0.05% of H2O2. The OD405 is measured in order to calculate the IC50 value of the peptide.
compound,measurement,setting,value
"O=C([O-])CN(CCN(CC(=O)[O-])CC(=O)O)CCN(CC(=O)[O-])CC(=O)O.[Gd+3] [Gd-DTPA, reference compound]",MRI signal enhancement in the healthy mouse,[1]; healthy mouse,only a partial signal enhancement
Leu-Ile-Lys-Lys-Pro-Phe-OH (LIKKPF-OH),effect of preinjection on the enhancement caused by Gd-DTPA-LIKKPF,"[1]; peptide preinjected at 100 μmol/kg, apoptotic liver",blocks the enhancement caused by the Gd-DTPA-LIKKPF
"Peptide No. 1-DTPAGd: Bz-NCS-DTPA condensed with peptide Asp-Ala-His-Ser-Phe-SerOH, complexed with gadolinium (DAHSFS; Bz-NCS-DTPA-Gd conjugate; printed: Asp-Ala-His-Ser-Phe-Ser)",Relaxivities measured at 20 MHz (37° C.),[2],6.8 s⁻¹ mM⁻¹
"Peptide No. 3-DTPAGd: Bz-NCS-DTPA condensed with peptide Pro-Gly-Asp-Leu-Ser-Arg-OH, complexed with gadolinium (PGDLSR; Bz-NCS-DTPA-Gd conjugate; printed: Pro-Gly-Asp-Leu-Ser-Arg-)",Relaxivities measured at 20 MHz (37° C.),[2],6.7 s⁻¹ mM⁻¹
"USPIO-LIKKPF: USPIO-PEG-PEPTIDE P contrast product with PEPTIDE P being LIKKPF; product of example 1, PEG size not stated (also: coupled to USPIO nanoparticle via PEG linker, site not given here)",MRI signal of diseased vs healthy cells,[3],diseased cells show a darker signal than the others
same,uptake of contrast agent (standardized relaxation rate and iron concentration),[3],diseased cells have taken up a larger amount of vectorized contrast agent
same,binding to apoptotic cells by MRI (signal intensity vs control cells),"[4]; Jurkat cells, 2 μM camptothecin 24 hours, 3 or 4 mM iron, 2 hours at 37° C.",binds specifically to the apoptotic cells
same,"decrease in MRI signal induced by incubation, vs unfunctionalized USPIO","[4]; apoptotic cells, 3 mM and 4 mM Fe, FIG. 4",greater than that recorded with the unfunctionalized USPIO
same,Kd,[5],78.5 nM
same,targeting of diseased regions by MRI,[6],more marked at the 5th day
same,IC50,[7],420 nM
annexin V: endogenous protein of 35 kDa with high affinity and specificity for PS,IC50,[8],1.08 nM
